“And” between values parts separate entries of the source, which are not always exact repeats. Identical values can stand only once.
Tested on: 991263-137-R1-J2-PDC complex spheroid viability
Assay: Anticancer human tumor 991263-137-R1-J2-PDC patient-derived colon adenocarcinoma cell line growth inhibition [POLQ]
Conditions: for viability, T/C: stronger effect = lower value
Method: Multicellular complex tumor spheroid response to Polymerase (POL) inhibitors (novobiocin, ART-558, RP6685) in combination with a variety of drugs and investigational agents in selected tumor cell lines
The POL inhibitors (novobiocin, ART-558, and RP6685) were evaluated both individually and in combination with standard of care and investigational anticancer small molecules within a complex spheroid model of solid tumors. . Complex spheroids include a stromal component modeled by human endothelial cells (HUVEC) and fibroblasts modeled by human mesenchymal stem cells (MSCs). The concentration ranges selected for each drug and investigational agent were based upon clinically achievable concentrations if the clinical Cmax of the agent was known.
Compounds. The drugs and investigational agents: novobiocin (NSC847541), ART-558 (NSC835418), RP-6685 (NSC848927), peposertib (NSC802822), ceralasertib (NSC780249), elimusertib (NSC800525), camonsertib (NSC841442), AZD-1390 (NSC803789), olaparib (NSC753686), talazoparib (NSC767125), rucaparib (NSC756644), sotorasib (NSC818433), MRTX-1133 (NSC836407), SN-38 (NSC673596), topotecan (NSC609699), epotoside (NSC141540), doxorubicin (NSC123127), gemcitabine (NSC613327), 5-fluorouracil (NSC19893), paclitaxel (NSC125973), vemurafenib (NSC761431), MSA-2 (NSC828583), SN-011 (NSC837082), adavosertib (NSC754352), prexasertib (NSC758257), carboplatin (NSC241240) and oxaliplatin (NSC266046), were obtained from the National Cancer Institute (NCI) Developmental Therapeutics Program Chemical Repository (21). The FDA-approved anticancer drug set is available from the Developmental Therapeutics Program at https://dtp.cancer.gov/organization/dscb/obtaining/. […] The stock solutions were prepared in dimethyl sulfoxide (DMSO, Sigma-Aldrich, St. Louis, MO, cat. D2650), except for the platinum compounds which were prepared in saline (Quality Biological, Gaithersburg, MD, cat. 114-055-101), at 800-fold the tested concentration and stored at -70 degrees C prior to their use. All drugs and investigational agents were tested over a range starting from a high concentration at or near the clinical Cmax and decreasing in half-log increments. If the clinical Cmax for an agent had not been determined, the highest concentration tested was 10 microM, except for SN-38, which was tested at a high concentration of 1 microM.
Cell Culture. All cells were maintained in an incubator at 37 degrees C and 5% CO2 with 95% humidity. The PDC lines were cultured according to standard operating procedures established by the NCI PDMR (https://pdmr.cancer.gov). Table 3 of the manuscript, lists the cell lines along with the number of the three cell types plated to form the mct-spheroids and media for tumor cell growth. After thawing, all PDC lines, except 997537-175-T-J1-PDC and 415267-285-R-J2-PDC, were cultured in Matrigel-coated flasks prepared with a working solution of 1X Ham's F-12 nutrient mix, without supplementation (Thermo Fisher Scientific, cat. 11765054), 100 U/mL penicillin-streptomycin (Thermo Fisher Scientific, cat. 15140122), and 2.5% Matrigel (Corning Inc., Corning, NY, cat. 354248) for the first three passages. The two PDC lines 997537-175-T-J1-PDC and 415267-285-R-J2-PDC were cultured on uncoated flasks. The 857933-349-R-J2-PDC line was cultured in 6C/Colon 1B media containing advanced DMEM/F-12 (Thermo Fisher Scientific, cat. 12634028), 10 mM HEPES (Thermo Fisher Scientific, cat. 15630080), 1X GlutaMAX supplement (Thermo Fisher Scientific, cat. 35050061), 0.1 mg/mL primocin (InvivoGen, San Diego, CA, cat. ant-pm-2), 10% defined fetal bovine serum, heat inactivated (HyClone Laboratories Inc., Logan, UT, cat. SH30070.03HI), 50% L-WRN conditioned media (ATCC, cat. CRL-3276), 1.25 mM N-Acetyl-L-cysteine (Sigma-Aldrich, cat. A9165), 10 mM nicotinamide (Sigma-Aldrich, cat. N0636), 1X B-27 supplement (Thermo Fisher Scientific, cat. 17504044), 1X N-2 supplement (Thermo Fisher Scientific, cat. […]
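Further: spheroids exposed to compounds for 7 days before readout.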
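Wherever viability, T/C is given: 100% = DMSO vehicle control viability.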

## Cc1cccc(N(C)C(=O)C2C(O)CCN2c2nc(C)cc(C(F)(F)F)c2C#N)c1 (centres undefined)
Compound 0.0316 µM
  viability, T/C: 101% [middle of 13 runs]
Compound 0.1 µM
  viability, T/C: 99.2% [middle of 13 runs]
Compound 3.16 µM
  viability, T/C: 101% [middle of 13 runs]
Compound 10 µM
  viability, T/C: 100% [middle of 13 runs]
Compound alone, run of 01/08/2024
  IC50: > 10000 nM
Compound alone, run of 01/19/2024
  IC50: > 10000 nM

## CC1COCCN1c1cc(-c2ccnn2C)c2ccnc(-c3ccn[nH]3)c2n1 (centres undefined)
Compound 0.0316 µM
  viability, T/C: 112% and 99.9% and 100%
Compound 0.1 µM
  viability, T/C: 86.5% and 89.2% and 93.4%
Compound 0.316 µM
  viability, T/C: 81.6% and 77.2% and 83%
Compound 1 µM
  viability, T/C: 52.1% and 41.8% and 54.8%
Compound 3.16 µM
  viability, T/C: 35.4% and 24% and 43.9%
Compound 10 µM
  viability, T/C: 28.9% and 25.4% and 31.9%
Curve of compound
  IC50: 1350 nM and 759 nM and 1690 nM

## C=CC(=O)N1CCN(c2nc(=O)n(-c3c(C)ccnc3C(C)C)c3nc(-c4c(O)cccc4F)c(F)cc23)C(C)C1 (centres undefined)
Compound 0.0316 µM
  viability, T/C: 119% and 99.2% and 102%
Compound 0.1 µM
  viability, T/C: 104% (2×) and 89.8%
Compound 0.316 µM
  viability, T/C: 107% and 105% and 103%
Compound 1 µM
  viability, T/C: 118% and 107% and 104%
Compound 10 µM
  viability, T/C: 104% and 108% and 110%
Curve of compound
  IC50: > 10000 nM

## C#Cc1c(F)ccc2cc(O)cc(-c3ncc4c(N5CC6CCC(C5)N6)nc(OCC56CCCN5CC(F)C6)nc4c3F)c12 (centres undefined)
Compound 0.0316 µM
  viability, T/C: 111% and 87.6% and 112%
Compound 0.1 µM
  viability, T/C: 107% and 91.8% and 88.9%
Compound 0.316 µM
  viability, T/C: 104% (2×) and 103%
Compound 1 µM
  viability, T/C: 108% and 105% and 109%
Compound 3.16 µM
  viability, T/C: 96.9% and 116% (2×)
Compound 10 µM
  viability, T/C: 104% and 99.7% and 82.3%
Curve of compound
  IC50: > 10000 nM

## COc1cccc2c1C(=O)c1c(O)c3c(c(O)c1C2=O)CC(O)(C(=O)CO)CC3OC1CC(N)C(O)C(C)O1 (centres undefined) + COC1C(OC(N)=O)C(O)C(Oc2ccc3c(O)c(NC(=O)c4ccc(O)c(CC=C(C)C)c4)c(=O)oc3c2C)OC1(C)C
Curve of first compound, second compound 0.0316 µM
  IC50: 1540 nM
Curve of first compound, second compound 0.1 µM
  IC50: 1210 nM
Curve of first compound, second compound 0.316 µM
  IC50: 1180 nM
Curve of first compound, second compound 1 µM
  IC50: 1130 nM
Curve of first compound, second compound 3.16 µM
  IC50: 1600 nM
Curve of first compound, second compound 10 µM
  IC50: 1030 nM
Second compound 0.0316 µM, first compound 0.0316 µM
  viability, T/C: 116%
Second compound 0.0316 µM, first compound 0.1 µM
  viability, T/C: 101%
Second compound 0.0316 µM, first compound 0.316 µM
  viability, T/C: 93.3%
Second compound 0.0316 µM, first compound 1 µM
  viability, T/C: 55.7%
Second compound 0.0316 µM, first compound 3.16 µM
  viability, T/C: 38.1%
Second compound 0.0316 µM, first compound 10 µM
  viability, T/C: 31.1%
Second compound 0.1 µM, first compound 0.0316 µM
  viability, T/C: 104%
Second compound 0.1 µM, first compound 0.1 µM
  viability, T/C: 115%
Second compound 0.1 µM, first compound 0.316 µM
  viability, T/C: 92.5%
Second compound 0.1 µM, first compound 1 µM
  viability, T/C: 51.9%
Second compound 0.1 µM, first compound 3.16 µM
  viability, T/C: 45.1%
Second compound 0.1 µM, first compound 10 µM
  viability, T/C: 34.9%
Second compound 0.316 µM, first compound 0.0316 µM
  viability, T/C: 107%
Second compound 0.316 µM, first compound 0.1 µM
  viability, T/C: 116%
Second compound 0.316 µM, first compound 0.316 µM
  viability, T/C: 76%
Second compound 0.316 µM, first compound 1 µM
  viability, T/C: 55.4%
Second compound 0.316 µM, first compound 3.16 µM
  viability, T/C: 43.1%
Second compound 0.316 µM, first compound 10 µM
  viability, T/C: 33.1%
Second compound 1 µM, first compound 0.0316 µM
  viability, T/C: 101%
Second compound 1 µM, first compound 0.1 µM
  viability, T/C: 120%
Second compound 1 µM, first compound 0.316 µM
  viability, T/C: 93.1%
Second compound 1 µM, first compound 1 µM
  viability, T/C: 51.5%
Second compound 1 µM, first compound 3.16 µM
  viability, T/C: 39.6%
Second compound 1 µM, first compound 10 µM
  viability, T/C: 27.4%
Second compound 3.16 µM, first compound 0.0316 µM
  viability, T/C: 109%
Second compound 3.16 µM, first compound 0.1 µM
  viability, T/C: 109%
Second compound 3.16 µM, first compound 0.316 µM
  viability, T/C: 92.2%
Second compound 3.16 µM, first compound 1 µM
  viability, T/C: 56.6%
Second compound 3.16 µM, first compound 3.16 µM
  viability, T/C: 41.9%
Second compound 3.16 µM, first compound 10 µM
  viability, T/C: 31.8%
Second compound 10 µM, first compound 0.0316 µM
  viability, T/C: 88.1%
Second compound 10 µM, first compound 0.1 µM
  viability, T/C: 106%
Second compound 10 µM, first compound 0.316 µM
  viability, T/C: 102%
Second compound 10 µM, first compound 1 µM
  viability, T/C: 50.1%
Second compound 10 µM, first compound 3.16 µM
  viability, T/C: 56.2%
Second compound 10 µM, first compound 10 µM
  viability, T/C: 33.9%

## O=c1[nH]cc(F)c(=O)[nH]1
Compound 0.0316 µM
  viability, T/C: 106% and 114% and 96.5%
Compound 0.1 µM
  viability, T/C: 90.3% and 99.3% and 92.5%
Compound 0.316 µM
  viability, T/C: 76.8% and 93.5% and 94.8%
Compound 1 µM
  viability, T/C: 94% and 95.8% and 91%
Compound 10 µM
  viability, T/C: 91.7% and 85.1% and 80.9%
Curve of compound
  IC50: > 10000 nM

From PubChem BioAssay AID1963828 (Molecular Pharmacology Branch, DTP, NCI, 2024)
